According to the supplement of paper PMC10307832:

Key:
Test in all cases: relative viability (nuclei count vs DMSO), 5 days (fraction); higher = more cells survive
Imatinib + AZD7762 = compound: Cc1ccc(NC(=O)c2ccc(CN3CCN(C)CC3)cc2)cc1Nc1nccc(-c2cccnc2)n1 [Imatinib] + NC(=O)Nc1cc(-c2cccc(F)c2)sc1C(=O)N[C@H]1CCCNC1 [AZD7762] (partner 0.2 µM)
In short: (§1)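 The day after seeding in 1536-well plates, lung cancer cell lines were treated by pin tool with a single drug, or with a fixed anchor-drug dose together with five library-drug doses (not always all listed) in √10 steps. After 5 days, a combined fix-and-stain solution (final 0.05% Triton X-100, 1% formaldehyde, 1 ug/ml Hoechst) was added. Nuclei counted on 4× images gave relative viability as treated counts over vehicle counts, reported as the median of duplicate plates.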

Imatinib + Palbociclib = compound: Cc1ccc(NC(=O)c2ccc(CN3CCN(C)CC3)cc2)cc1Nc1nccc(-c2cccnc2)n1 [Imatinib] + CC(=O)c1c(C)c2cnc(Nc3ccc(N4CCNCC4)cn3)nc2n(C2CCCC2)c1=O [Palbociclib] (partner 0.5 µM)
In short: as §1

Imatinib + Navitoclax = compound: Cc1ccc(NC(=O)c2ccc(CN3CCN(C)CC3)cc2)cc1Nc1nccc(-c2cccnc2)n1 [Imatinib] + CC1(C)CCC(c2ccc(Cl)cc2)=C(CN2CCN(c3ccc(C(=O)NS(=O)(=O)c4ccc(N[C@H](CCN5CCOCC5)CSc5ccccc5)c(S(=O)(=O)C(F)(F)F)c4)cc3)CC2)C1 [Navitoclax] (partner 0.5 µM)
In short: as §1

Imatinib + Tozasertib = compound: Cc1ccc(NC(=O)c2ccc(CN3CCN(C)CC3)cc2)cc1Nc1nccc(-c2cccnc2)n1 [Imatinib] + Cc1cc(Nc2cc(N3CCN(C)CC3)nc(Sc3ccc(NC(=O)C4CC4)cc3)n2)n[nH]1 [Tozasertib] (partner 0.1 µM)
In short: as §1

Cell Line: LCLC-97TM1
- relative viability (Imatinib + AZD7762; first compound 0.02 µM): 0.28
- relative viability (Imatinib + AZD7762; first compound 0.2 µM): 0.238
- relative viability (Imatinib + AZD7762; first compound 0.6325 µM): 0.258
- relative viability (Imatinib + AZD7762; first compound 2 µM): 0.177
- relative viability (Imatinib + Palbociclib; first compound 0.02 µM): 0.25
- relative viability (Imatinib + Palbociclib; first compound 0.2 µM): 0.267
- relative viability (Imatinib + Palbociclib; first compound 0.6325 µM): 0.172
- relative viability (Imatinib + Palbociclib; first compound 2 µM): 0.219
- relative viability (Imatinib + Navitoclax; first compound 0.2 µM): 0.605
- relative viability (Imatinib + Navitoclax; first compound 0.6325 µM): 0.554
- relative viability (Imatinib + Navitoclax; first compound 2 µM): 0.399
- relative viability (Imatinib + Tozasertib; first compound 0.02 µM): 0.236
- relative viability (Imatinib + Tozasertib; first compound 0.2 µM): 0.14
- relative viability (Imatinib + Tozasertib; first compound 0.6325 µM): 0.2
- relative viability (Imatinib + Tozasertib; first compound 2 µM): 0.214

Cell Line: HCC-15
- relative viability (Imatinib + AZD7762; first compound 0.02 µM): 0.449
- relative viability (Imatinib + AZD7762; first compound 0.2 µM): 1.32
- relative viability (Imatinib + AZD7762; first compound 0.6325 µM): 1.42
- relative viability (Imatinib + AZD7762; first compound 2 µM): 1.3
- relative viability (Imatinib + Palbociclib; first compound 0.02 µM): 0.496
- relative viability (Imatinib + Palbociclib; first compound 0.2 µM): 0.822
- relative viability (Imatinib + Palbociclib; first compound 0.6325 µM): 0.778
- relative viability (Imatinib + Palbociclib; first compound 2 µM): 0.713
- relative viability (Imatinib + Navitoclax; first compound 0.02 µM): 0.736
- relative viability (Imatinib + Navitoclax; first compound 0.06325 µM): 0.522
- relative viability (Imatinib + Navitoclax; first compound 0.2 µM): 0.764
- relative viability (Imatinib + Navitoclax; first compound 0.6325 µM): 0.722
- relative viability (Imatinib + Navitoclax; first compound 2 µM): 0.709
- relative viability (Imatinib + Tozasertib; first compound 0.02 µM): 0.472
- relative viability (Imatinib + Tozasertib; first compound 0.2 µM): 0.389
- relative viability (Imatinib + Tozasertib; first compound 0.6325 µM): 0.402
- relative viability (Imatinib + Tozasertib; first compound 2 µM): 0.284

Cell Line: PC-3 [JPC-3]
- relative viability (Imatinib + AZD7762; first compound 0.02 µM): 0.979
- relative viability (Imatinib + AZD7762; first compound 0.6325 µM): 0.921
- relative viability (Imatinib + AZD7762; first compound 2 µM): 0.635
- relative viability (Imatinib + Palbociclib; first compound 0.02 µM): 0.581
- relative viability (Imatinib + Palbociclib; first compound 0.6325 µM): 0.763
- relative viability (Imatinib + Palbociclib; first compound 2 µM): 0.539
- relative viability (Imatinib + Navitoclax; first compound 0.02 µM): 0.84
- relative viability (Imatinib + Navitoclax; first compound 0.2 µM): 0.789
- relative viability (Imatinib + Navitoclax; first compound 0.6325 µM): 0.811
- relative viability (Imatinib + Navitoclax; first compound 2 µM): 0.687
- relative viability (Imatinib + Tozasertib; first compound 0.02 µM): 0.911
- relative viability (Imatinib + Tozasertib; first compound 0.2 µM): 0.855
- relative viability (Imatinib + Tozasertib; first compound 0.6325 µM): 0.879
- relative viability (Imatinib + Tozasertib; first compound 2 µM): 0.789

Cell Line: LU99A
- relative viability (Imatinib + AZD7762; first compound 0.02 µM): 0.437
- relative viability (Imatinib + AZD7762; first compound 0.06325 µM): 0.274
- relative viability (Imatinib + AZD7762; first compound 0.2 µM): 0.336
- relative viability (Imatinib + AZD7762; first compound 0.6325 µM): 0.254
- relative viability (Imatinib + AZD7762; first compound 2 µM): 0.405
- relative viability (Imatinib + Palbociclib; first compound 0.02 µM): 0.394
- relative viability (Imatinib + Palbociclib; first compound 0.06325 µM): 0.424
- relative viability (Imatinib + Palbociclib; first compound 0.2 µM): 0.411
- relative viability (Imatinib + Palbociclib; first compound 0.6325 µM): 0.413
- relative viability (Imatinib + Palbociclib; first compound 2 µM): 0.454
- relative viability (Imatinib + Navitoclax; first compound 0.02 µM): 0.905
- relative viability (Imatinib + Navitoclax; first compound 0.06325 µM): 0.788
- relative viability (Imatinib + Navitoclax; first compound 0.2 µM): 0.807
- relative viability (Imatinib + Navitoclax; first compound 0.6325 µM): 1.08
- relative viability (Imatinib + Navitoclax; first compound 2 µM): 0.855
- relative viability (Imatinib + Tozasertib; first compound 0.02 µM): 0.283
- relative viability (Imatinib + Tozasertib; first compound 0.06325 µM): 0.31
- relative viability (Imatinib + Tozasertib; first compound 0.2 µM): 0.219
- relative viability (Imatinib + Tozasertib; first compound 0.6325 µM): 0.261
- relative viability (Imatinib + Tozasertib; first compound 2 µM): 0.238

Cell Line: HCC-827
- relative viability (Imatinib + AZD7762; first compound 0.02 µM): 0.189
- relative viability (Imatinib + AZD7762; first compound 0.06325 µM): 0.215
- relative viability (Imatinib + AZD7762; first compound 0.2 µM): 0.195
- relative viability (Imatinib + AZD7762; first compound 0.6325 µM): 0.17
- relative viability (Imatinib + AZD7762; first compound 2 µM): 0.157
- relative viability (Imatinib + Palbociclib; first compound 0.02 µM): 0.474
- relative viability (Imatinib + Palbociclib; first compound 0.06325 µM): 0.557
- relative viability (Imatinib + Palbociclib; first compound 0.2 µM): 0.516
- relative viability (Imatinib + Palbociclib; first compound 0.6325 µM): 0.461
- relative viability (Imatinib + Palbociclib; first compound 2 µM): 0.455
- relative viability (Imatinib + Navitoclax; first compound 0.02 µM): 1.05
- relative viability (Imatinib + Navitoclax; first compound 0.06325 µM): 0.947
- relative viability (Imatinib + Navitoclax; first compound 0.2 µM): 1.08
- relative viability (Imatinib + Navitoclax; first compound 0.6325 µM): 1.05
- relative viability (Imatinib + Navitoclax; first compound 2 µM): 0.973
- relative viability (Imatinib + Tozasertib; first compound 0.02 µM): 0.404
- relative viability (Imatinib + Tozasertib; first compound 0.06325 µM): 0.486
- relative viability (Imatinib + Tozasertib; first compound 0.2 µM): 0.407
- relative viability (Imatinib + Tozasertib; first compound 0.6325 µM): 0.407
- relative viability (Imatinib + Tozasertib; first compound 2 µM): 0.421

Cell Line: NCI-H1734
- relative viability (Imatinib + AZD7762; first compound 0.02 µM): 0.673
- relative viability (Imatinib + AZD7762; first compound 0.2 µM): 0.516
- relative viability (Imatinib + AZD7762; first compound 0.6325 µM): 0.48
- relative viability (Imatinib + AZD7762; first compound 2 µM): 0.484
- relative viability (Imatinib + Palbociclib; first compound 0.02 µM): 0.348
- relative viability (Imatinib + Palbociclib; first compound 0.2 µM): 0.402
- relative viability (Imatinib + Palbociclib; first compound 0.6325 µM): 0.346
- relative viability (Imatinib + Palbociclib; first compound 2 µM): 0.351
- relative viability (Imatinib + Navitoclax; first compound 0.02 µM): 0.938
- relative viability (Imatinib + Navitoclax; first compound 0.2 µM): 1.11
- relative viability (Imatinib + Navitoclax; first compound 0.6325 µM): 0.758
- relative viability (Imatinib + Tozasertib; first compound 0.02 µM): 0.243
- relative viability (Imatinib + Tozasertib; first compound 0.06325 µM): 0.268
- relative viability (Imatinib + Tozasertib; first compound 0.2 µM): 0.278
- relative viability (Imatinib + Tozasertib; first compound 0.6325 µM): 0.259
- relative viability (Imatinib + Tozasertib; first compound 2 µM): 0.264

Cell Line: NCI-H2347
- relative viability (Imatinib + AZD7762; first compound 0.02 µM): 0.824
- relative viability (Imatinib + AZD7762; first compound 0.2 µM): 0.848
- relative viability (Imatinib + AZD7762; first compound 2 µM): 0.657
- relative viability (Imatinib + Palbociclib; first compound 0.02 µM): 0.498
- relative viability (Imatinib + Palbociclib; first compound 0.2 µM): 0.425
- relative viability (Imatinib + Palbociclib; first compound 0.6325 µM): 0.424
- relative viability (Imatinib + Palbociclib; first compound 2 µM): 0.405
- relative viability (Imatinib + Navitoclax; first compound 0.02 µM): 0.792
- relative viability (Imatinib + Navitoclax; first compound 0.06325 µM): 0.675
- relative viability (Imatinib + Navitoclax; first compound 0.2 µM): 0.688
- relative viability (Imatinib + Navitoclax; first compound 0.6325 µM): 0.823
- relative viability (Imatinib + Navitoclax; first compound 2 µM): 0.859
- relative viability (Imatinib + Tozasertib; first compound 0.06325 µM): 0.521
- relative viability (Imatinib + Tozasertib; first compound 0.2 µM): 0.499
- relative viability (Imatinib + Tozasertib; first compound 0.6325 µM): 0.446
- relative viability (Imatinib + Tozasertib; first compound 2 µM): 0.407
